Measured values as given in a melting point compilation (Tetko et al.; mined from patent text by program, amines drawn as free bases though some values may be those of a salt).

Structure (SMILES) | melting point
Cc1c(-c2ccccc2)n(-c2ccccc2Cl)c(-c2ccccc2)cc1=O | 228 to 231 °C
Nc1ccccc1C(=O)NC1CCCCC1 | 152 to 154 °C
NC(=O)c1c(N)cccc1OCCOc1ccccc1 | 127 to 130 °C
CCNCC1CCN(c2c(F)cc3c(=O)c(C(=O)O)cn(C4CCCCC4)c3c2F)C1 (configuration not stated) | 194 to 196 °C
COC(=O)[C@@]1(c2ccc(Br)cc2)CC1(c1ccccc1)c1ccccc1 | 82 to 85 °C
COC(=O)Nc1ccc(Br)c(F)c1 | 121 to 122 °C
CC1(C)Oc2c(ccc3ccccc23)C2OC21 (configuration not stated) | 120 to 121 °C
NC(=O)C1(Nc2ccc(I)cc2)CCCC1 | 148 °C
OCC(CC(F)(F)F)Nc1nc(-c2ccc(Br)cc2)cs1 (configuration not stated) | 120 to 121 °C
Cc1c(C(=O)C2C(=O)CCCC2=O)ccc(S(C)(=O)=O)c1S(C)(=O)=O | 301 to 302 °C
COC(=O)C1CC(c2ccc(OC)c(OC)c2)=NO1 (configuration not stated) | 106 to 108 °C
CCc1nn(C(=O)NS(=O)(=O)c2c(C)cccc2Cl)c(=O)n1C | 176 °C
CN(C)Cc1nc(-c2ncn3c2[C@@H]2CCN2C(=O)c2cc(F)ccc2-3)no1 | 150 to 155 °C
C[Si](C)(C)CCOCn1c(Br)nc(C#N)c1C#N | 47 to 52 °C
O=C1CC(=O)C2C3C=CC(C3)C12 (configuration not stated) | 183 °C
CCCCCCCCCCCCC1CC(=O)N(NC(=O)CCc2cc(C(C)(C)C)c(O)c(C(C)(C)C)c2)C1=O (configuration not stated) | 55 to 60 °C
NCC1Cc2cc(Cl)c3[nH]c(=O)ccc3c2O1 (configuration not stated) | > 300 °C
Cc1cc2c(O)nc(O)nc2s1 | > 300 °C
CCOC(=O)c1nc2scc(C(=O)O)c2c(=O)[nH]1 | 258 °C
N#Cc1c(-c2ccccc2)c(-c2ccccc2)n[nH]c1=O | 280 to 281 °C
C=Cc1ccncc1C#N | 56 to 57 °C
Clc1ccc2nc(-c3ccccc3)n(CCCN3CCN(C(c4ccccc4)c4ccccc4)CC3)c2c1 | 198 °C
COc1ccc(N2CCN(c3c(C)c(C)c4c(c3C)C(c3ccc(F)nc3)C(C)(C)O4)CC2)cc1 (configuration not stated) | 87 to 88 °C
CN1CCC(C2Cc3c(O)cccc3C(=O)N2)CC1 (configuration not stated) | 216 to 218 °C

Structure (SMILES) | melting point
COc1ccc(C2c3c(C)c(NC(=O)CC(C)(C)C)c(C)c(C)c3OC2(C)C)cc1 (configuration not stated) | 175 to 176 °C
N=C(N)c1ccc(C(=O)N2CCCCC2C(=O)N2CCC(OCC(=O)O)CC2)cc1 (configuration not stated) | 233 to 234 °C
C#CCN1CC[C@H](O)C1=O | 89 to 90 °C
NS(=O)(=O)c1ccc(-c2cnn(CC=C(F)F)c(=O)c2-c2ccc(F)cc2)cc1 | 191 to 194 °C
FC(F)(F)c1cc(Cl)c(-c2nc(C(F)(F)F)c(Br)[nH]2)c(Cl)c1 | 295 °C
CNn1cc(C(=O)O)c(=O)c2cc(F)c(F)c(F)c21 | 237 to 238 °C
CS(=O)(=O)Nn1c(=O)[nH]c2cc([N+](=O)[O-])c(N3CCOCC3)cc2c1=O | > 260 °C
CCOC(=O)C(=O)c1cn(-c2ccccc2)c2ccccc12 | 109 to 110 °C
O=c1[nH]c2ccccc2c(=O)n1CCN1CCC(c2c[nH]c3cc(F)ccc23)CC1 | 301 °C
COc1ccc(-c2cnc(S(C)(=O)=O)nc2)cc1OC1CCCC1 | 188 to 190 °C
CC(C)(C)NC(=O)c1ccc(Cl)cc1 | 136 to 137 °C
NCCNc1cc(-n2cccn2)nc(-c2cccs2)n1 | 147 °C
O=C1C(=Cc2ccncc2)CCc2ccccc21 | 112 to 114 °C
CCCc1c(OCCCSCCC(=O)O)ccc(C(C)=O)c1O | 90 to 92 °C
CC(=O)N1CCn2c3c(c4cccc(c42)C1)CCCCCC3 | 41 to 44 °C
CCCS(=O)(=O)c1c(C)nn(-c2c(Cl)cc(C(F)(F)F)cc2Cl)c1N | 146 to 147 °C
Cc1ncc(C=CC=CC(=O)O)s1 | 220 to 222 °C
CCOc1c(CO)cnc2c1cnn2CC | 100 to 102 °C
CC(C)(C)c1ccc(NC(=O)N2CCCC3(CC2)CC(c2ccccc2)=NO3)cc1 (configuration not stated) | 137 to 142 °C
N#Cc1c(O)csc1N1CCOCC1 | 191 °C
CC(C(=O)O)c1cccc(N)c1 (configuration not stated) | 98 to 100 °C
CN(c1c(Cl)ccc2cc(C(N)=S)[nH]c12)S(=O)(=O)c1cccs1 | 200 to 201 °C
Cc1nn(-c2ccccn2)c(-c2ccccc2)c1CC(=O)O | 182 to 183 °C
N#Cc1ccc(CN2CCN(c3cc(-c4ccccc4)c4ccc(=O)ccn34)CC2)cc1 | 196 °C

Structure (SMILES) | melting point
C[C@@H]1NC(=O)C[C@@]1(O)C1CC1 | 133 to 140 °C
COc1ncnc(N2CCCC2)c1Cc1cccc(F)c1 | 74 to 76 °C
COc1ccc(NC(=O)OC(C)(C)C)c(C(=O)C2CC2)c1 | 96 to 97 °C
CC(C)N1CC(CCl)C(c2ccccc2)(c2ccccc2)C1=O (configuration not stated) | 114 to 116 °C
COC(=O)c1c(C)n(-c2ccc(Cl)cc2)c(C)cc1=O | 189 to 190 °C
O=c1[nH]c(-c2ccccc2Br)nc2c1CCCC2 | 193 °C
CN(C)CC1=NC(O)(CCl)CS1 (configuration not stated) | 90 to 92 °C
O=C(Nc1cccnc1)c1nnc2ccccc2c1O | 326 to 328 °C
NC(=O)c1[nH]c2ccc(Cl)cc2c1S(=O)(=O)c1ccccn1 | 244 to 246 °C
N#Cc1cc([N+](=O)[O-])ccc1Sc1ccccc1 | 82 to 84 °C
CC(=O)SC1CN(C(=O)OCc2ccccc2)C1 | 94.5 to 95.5 °C
O=C(O)c1cc(=O)c2cc3[nH]c(=O)oc3cc2[nH]1 | > 300 °C
NC(=O)c1cnccc1C(F)(F)F | 163 °C
Fc1ccc(-c2cn([C@H]3CN4CCC3CC4)nn2)cn1 | 147 °C
CC(=O)OC1CC2C(=O)CC3C(CCC4(C)C(C(C)C=CC(C)C(C)C)CCC34)C2(C)CC1OC(C)=O (configuration not stated) | 196 to 197 °C
COC(=O)CCCCC(C)C1CCC2C3CCC4CC(OC=O)CCC4(C)C3CC(OC=O)C12C (configuration not stated) | 67 to 72 °C
O=C1CCN=C(c2ccccc2Cl)c2ccccc21 | 135 to 137 °C
COC(=NS(=O)(=O)c1ccccc1Cl)Nc1nc(C)nc(OC)n1 | 156 to 157 °C
CC(=O)OC1CSC(Oc2cncc(-c3cccnc3)c2)C(OC(C)=O)C1OC(C)=O (configuration not stated) | 149 °C
CCCOc1cc(C(=O)O)cc([N+](=O)[O-])c1C(=O)c1ccccc1 | 160 to 162 °C
COC(=O)C1Cc2cc3c(cc2C(=O)CS1)OCO3 (configuration not stated) | 165 to 166 °C
CC(C)(C)OC(=O)Nc1ccc(C#Cc2ccccc2Cl)cc1[N+](=O)[O-] | 152 to 155 °C

Results, then the compound that gave them:

melting point | Structure (SMILES)
199 to 201 °C | Cc1ccccc1CC(=NC#N)NC(NC(=O)Cc1ccc(C#N)cc1)C(C)(C)C (configuration not stated)
188 to 189 °C | COc1ccc(-c2sc3ccccc3c2C(=O)c2ccc(O)cc2)cc1
41 °C | COc1ccc(Cc2nc3c(cnn3C(CCCc3ccccc3)C(C)O)c(=O)[nH]2)cc1 (configuration not stated)
185 to 187 °C | Cc1cc(OCc2ccccc2)c2cc(C(N)=O)[nH]c2c1
169 to 170 °C | CCCSC(C)(C(=O)O)c1ccc2oc(Cc3nc(-c4ccccc4)oc3C)cc2c1 (configuration not stated)
220 to 223 °C | COc1ccc2c(c1)C(=O)N(c1ccc3cccnc3c1)C2
238 °C | NS(=O)(=O)c1ccc(-c2cccc(-c3nc(-c4ccc(Cl)cc4Cl)cc(C(F)(F)F)n3)c2)s1
250 to 253 °C | CCNS(=O)(=O)c1nc2cc(C(=O)c3ccccc3)ccc2[nH]1
180 to 185 °C | CC(=O)Nc1ccc(C(=N)Nc2cc(NC(=O)/C=C/c3ccccc3C(F)(F)F)c(F)cc2F)cc1
124 to 126 °C | CCC(Oc1cccc(N(C)C)c1)C(=O)OC1CC(O)C=C2C=CC(C)C(CCC3CC(O)CC(=O)O3)C21 (mixture of isomers)
235 to 245 °C | COc1ccc(C(=O)Nc2nc(-c3ccco3)c(-c3ccncc3)s2)cc1
68 °C | COc1nc(NCCCN2CCOCC2)nc(OC)c1NC(=O)c1csc(Oc2cccc(C(C)(C)C)c2)n1
127 to 128 °C | COC(=O)c1c(-c2cccc(F)c2)c2cc(OCc3ccccc3)ccc2c(=O)n1CC(C)C
119 °C | CCCCCCCCOC1(OC(=O)C2CCCO2)C=CC(c2ccccc2)=CC1 (configuration not stated)
236 °C | CSc1cc(CCC(=O)O)cc(-c2nc(=O)c3ccccc3s2)n1
177 to 179 °C | CC(C)C(=O)N[C@H]1CCc2c(c3cc(Br)ccc3n2Cc2ccccc2)C1

melting point | Structure (SMILES)
167 to 170 °C | CC(C)c1nc(CO)n(Cc2cnc3ccccc3c2)c1Sc1cc(Cl)cc(Cl)c1
228 to 229 °C | CC(C)Cn1c(CNC(=O)OC(C)(C)C)c(-c2ccccc2)c2cc(C(N)=S)ccc2c1=O
90 to 94 °C | CCCCOc1ccc(CC(=O)N[C@@H](C(=O)O)[C@@H](C)O)cc1
70 to 72 °C | CC(O)(CCCCl)c1ccc(-c2cccc(F)c2)cc1 (configuration not stated)
226 to 228 °C | COc1ccc(-c2sc3c(c2CBr)c(=O)c(C(C)=O)cn3Cc2ccccc2F)cc1
219 to 220 °C | COc1ccnc(CCc2nc3cc(-c4ccc(S(=O)(=O)Nc5ccc(C)cc5)cc4)cnc3[nH]2)c1
150 to 152 °C | O=C1[C@H]2CCC[C@H]2N(C(=O)CCn2ccnc2)c2ccccc2N1Cc1ccccc1 (relative stereo)
109 to 111 °C | CCCCCOc1ccc(Cn2c(C)nc(Cl)c2COC(=O)NS(=O)(=O)c2ccc(C)cc2)c(Cl)c1
169 to 171 °C | O=C1c2ccccc2-c2c1c1ccccc1c(=O)n2CCCCCNS(=O)(=O)c1ccc(Br)cc1
94 to 95 °C | CCCNC(=O)CCCc1ccc2c(c1)c(Cc1ccc(C(=O)NS(=O)(=O)c3ccccc3C)cc1OC)cn2CCC
143 to 144 °C | CCn1c2ccc(C=O)cc2c2c3ccccc3ccc21
117 to 119 °C | O=S(=O)(Nc1cccc(CCOCc2csc(-c3ccc(C(F)(F)F)cc3)n2)c1)C(F)(F)F
129 to 130 °C | Cc1nn(-c2ccccn2)cc1COc1ccc(CCC(=O)O)cc1
98.5 to 99.9 °C | CCOc1ccccc1OC(c1ccccc1)C(O)CN (configuration not stated)
120 to 121 °C | CCCCN(C)c1nccc2ccc(C(=O)N[C@@H](Cc3cc(F)cc(F)c3)[C@H](O)CNCc3cccc(CC)c3)cc12
97 to 99 °C | CCOC(=O)[C@H](NS(=O)(=O)c1ccc(C)cc1)[C@@H]1CO[C@@H](c2ccccc2)C1
